Assay results reported in patent US7709653B2, “Asymmetric cyanine compounds, their preparation methods and their uses” (Shenzhen Mindray Bio-Medical Electronics Co. Ltd., priority 2008, dated 2010).

What was measured:
[1] = Detection of the absorption peak of the fluorescent dyes (UV-visible spectrophotometer, after standing at different temperatures); format: physicochemical; settings: for Maximum absorption peak of the compounds disclosed: methanol/ethylene glycol (50:50 vol/vol), light-proof; for Maximum absorption peak: methanol/ethylene glycol, given with the synthesis example
Experimental: A certain amount of an asymmetric cyanine compound was accurately weighed and sufficiently dissolved in 2.5 mL of methanol/ethylene glycol solution (50:50 vol/vol) to prepare a fluorescent dye solution at a concentration of 5 mM. Four parts of 5 μL aliquots of the fluorescent dye solution were each diluted in 2 mL of methanol/ethylene glycol solution (50:50 vol/vol) and were let stand under a hermetic and light-proof condition at 0° C., 20° C., 40° C. and 60° C. respectively for 48 hours. The maximum absorption peak was detected using a ultraviolet-visible spectrophotometer.

[2] = test system: soft-shelled turtle (Trionyx sinensis) liver RNA; experiment: Fluorescence intensity of dye in PBS containing soft-shelled turtle liver RNA; format: binding; settings: for Relative fluorescence intensity, after binding RNA / Maximum excitation peak of the dye/RNA complexes / Relative fluorescence intensity, before binding RNA: in PBS; for Relative fluorescence intensity, after binding RNA: bound with soft-shelled turtle liver RNA; for Maximum excitation peak of the dye/RNA complexes: room temperature; for Relative fluorescence intensity, before binding RNA: without RNA; for Ratio of increase in fluorescence (after vs before binding): soft-shelled turtle liver RNA in PBS; for Fluorescence emission strength of the dye/RNA complexes: with increase in RNA concentration / on complex formation, PBS
Experimental: A certain amount of Dye-1 was accurately weighed and sufficiently dissolved in 2.5 mL of methanol/ethylene glycol (50:50 vol/vol) to prepare a dye solution at a concentration of 5 mM. This solution was filtered before use. Separate amounts of freshly prepared soft-shelled turtle (Trionyx sinensis) liver RNA were weighed and dissolved in PBS to obtain PBS buffers containing 100 μg/mL, 30 μg/mL, 10 μg/mL, 3 μg/mL of RNA. 2 μL aliquots of the prepared 5 mM dye solution were accurately measured and respectively combined in 1 mL of PBS with 1 μL of the PBS buffers containing different concentrations of RNA. After reacting for a period of time, the complexes were detected for their emission spectra at the selected excitation wavelength (which the skilled artisan would understand is the maximum absorption wavelength of the dye. See, e.g., Table 1). The detection temperature was at room temperature. The instrument used was fluorescence spectrophotometer Model FL-4500. […] The detection procedures followed were those described in Example 10 and Example 11. The fluorescence spectra for the complexes of Dye-3 and different concentrations of DNA or RNA are shown in FIG. 6 and FIG. 7, respectively. The comparisons of fluorescence intensity for Dye-3 before and after it is bound with DNA or with RNA in PBS are shown in FIG. 8 and FIG. 9, respectively.

[3] = test system: salmon sperm DNA; experiment: Fluorescence intensity of dye in PBS containing salmon sperm DNA; format: binding; settings: for Relative fluorescence intensity, after binding DNA: bound with salmon sperm DNA; for Maximum excitation peak of the dye/DNA complexes: room temperature; for Ratio of increase in fluorescence (after vs before binding): salmon sperm DNA in PBS; for Fluorescence emission strength of the dye/DNA complexes: with increase in DNA concentration / on complex formation, PBS
Experimental: A certain amount of Dye-1 was accurately weighed and sufficiently dissolved in 2.5 mL of methanol/ethylene glycol (50:50 vol/vol) to prepare a dye solution at a concentration of 5 mM. This solution was filtered before use. Separate amounts of salmon sperm DNA were weighed and dissolved in PBS to obtain PBS buffers containing 3 mg/mL, 1 mg/mL, 0.3 mg/mL, 0.1 mg/mL of DNA. 2 μL aliquots of the prepared 5 mM dye solution were accurately measured and respectively combined in 1 mL of PBS with 1 μL of the PBS buffers containing different concentrations of DNA. After reacting for a period of time, the complexes were detected for their emission spectra at the selected excitation wavelength (which the skilled artisan would understand is the maximum absorption wavelength of the dye. See, e.g., Table 1). The detection was performed at room temperature. The instrument used was fluorescence spectrophotometer Model FL-4500. […] The detection procedures followed were those described in Example 10 and Example 11. The fluorescence spectra for the complexes of Dye-3 and different concentrations of DNA or RNA are shown in FIG. 6 and FIG. 7, respectively. The comparisons of fluorescence intensity for Dye-3 before and after it is bound with DNA or with RNA in PBS are shown in FIG. 8 and FIG. 9, respectively.

[4] = after standing at 0° C. for 48 hours
[5] = after standing at 20° C. for 48 hours
[6] = after standing at 40° C. for 48 hours
[7] = after standing at 60° C. for 48 hours

SMILES	Maximum absorption peak of the compounds disclosed [1, 4] [nm]	Maximum absorption peak of the compounds disclosed [1, 5] [nm]	Maximum absorption peak of the compounds disclosed [1, 6] [nm]	Maximum absorption peak of the compounds disclosed [1, 7] [nm]	Maximum absorption peak [1] [nm]	Shift of the position of the maximum absorption peak as a function of temperature ([1]; 0° C., 20° C., 40° C. and 60° C. for 48 hours)	Relative fluorescence intensity, after binding RNA [2]	Maximum excitation peak of the dye/RNA complexes [2]	Relative fluorescence intensity, before binding RNA [2]	Ratio of increase in fluorescence (after vs before binding) [2]	Fluorescence emission strength of the dye/RNA complexes [2]	Relative fluorescence intensity, after binding DNA ([3]; in PBS)	Maximum excitation peak of the dye/DNA complexes ([3]; in PBS)	Relative fluorescence intensity, before binding DNA ([3]; in PBS, without salmon sperm DNA)	Ratio of increase in fluorescence (after vs before binding) [3]	Fluorescence emission strength of the dye/DNA complexes [3]
CCN1C=C/C(=C\C=C\c2sc3ccccc3[n+]2CCO)c2ccc(Cl)cc21 [Dye-4]	639	639	639	639	639											
OCCN1C=C/C(=C\C=C\c2sc3ccccc3[n+]2CCO)c2ccc(Br)cc21 [Dye-6]	638	638	638	638	638											
CC[n+]1c(/C=C/C=C2\C=CN(CCO)c3ccccc32)sc2ccc(Cl)cc21 [Dye-3]					640	did not shift	23.94	> 655 nm	0.67	35.7	increased rapidly	97.56	> 655 nm	0.67	146	increased rapidly
OCCN1C=C/C(=C\C=C\c2sc3ccc(Cl)cc3[n+]2CCO)c2ccccc21 [Dye-1]	638	638	638	638	638		16.79	about 660 nm	0.75	22.4	increased rapidly	63.29	about 660 nm		84	increased rapidly
CCN1C=C/C(=C\C=C\c2sc3ccccc3[n+]2CCOC(C)=O)c2ccc(Cl)cc21 [Dye-2]	639	639	639	639	639											
CC[n+]1c(/C=C/C=C2\C=CN(CCO)c3ccccc32)sc2ccc(Br)cc21 [Dye-5]	640	640	640	640	640											
